Test results taken from US7338932B2, “Methods of modulating functions of polypeptide GalNAc-transferases and of screening test substances to find agents herefor, pharmaceutical compositions comprising such agents and the use of such agents for preparing medicaments” (Glycozym APS, priority 2000, dated 2008).
Read-outs that look alike come from different tables or passages of the source. Ends that are not written are not given here.

Tests used:
[1] = target: T1, GalNAc-T4 lectin domain (T4ld) (Homo sapiens, UniProt Q8N4A0); test: Direct binding ELISA to GalNAc-MUC1 glycopeptide, competitive inhibition, T4ld
T1 construct: made in house; host or cells: High Five insect cells (baculovirus, pAcGP67-A)
Procedure: (§1) Protein biotinylation was made as previously reported^62. The pH of 1 ml purified protein (0.3 mg/ml) in PBS was adjusted to pH 9 with 1 M NaOH and 40 μl N-hydroxy-succinimidobiotin (Sigma) dissolved in DMF (10 mg/ml) was added. The solution was mixed end-over-end for 2 hours at room temperature, and dialyzed three times against PBS and an equal volume of glycerol was added. The biotinylated proteins were stored at −20° C. in 50% glycerol until use.
(§2) Direct binding ELISA assay was developed as follows: Polystyrene microtiter plates (Maxisorb, Nunc, Denmark) were coated with peptides or enzymatically glycosylated glycopeptides in PBS overnight at 4° C. Plates were washed and blocked with 0.1% Tween20 and 0.2% BSA in PBS for 1 h at room temperature, followed by incubation with biotinylated proteins in PBS with 0.05% Tween20 for 2 h at room temperature. After four washes with PBS, plates were incubated with 1:2,000 dilution streptavidin-HRP (Sigma) in PBS for 30 min at room temperature and washed four times with PBS. Development was performed with 0.5 mg/ml o-phenylenediamine and 0.02% H2O2 at room temperature for 15 min, and reaction stopped by adding 100 μl/well of 0.5 N H2SO4. Competitive inhibition assays were done at end-point titers of GalNAc-transferase proteins with one hour preincubations with inhibitor.
(§3) In binding studies using lectins without biotinylation antibodies to the HIS-tag and the T7-tag, or in some experiments antibodies raised to GalNAc-T2 and -T4 enzymes were used to detect binding.

[2] = target: T2, secreted soluble GalNAc-T4 (sT4) (Homo sapiens, UniProt Q8N4A0); test: Direct binding ELISA to GalNAc-MUC1 glycopeptide, competitive inhibition, sT4; conditions: binding to GalNAc-MUC1 glycopeptide
T2 construct: using the GalNAc-T4-sol construct that encodes residues 32-578 inserted into pT7T3U19; 6xHis (N); thrombin cleavage site (N); T7 tag (N); made in house; host or cells: High Five insect cells (baculovirus)
Procedure: as §1, §2, §3

[3] = target: T3, GalNAc-T2 lectin domain (T2ld) (Homo sapiens, UniProt Q10471); test: Direct binding ELISA to GalNAc-MUC1 glycopeptide, competitive inhibition, T2ld
T3 construct: made in house; host or cells: High Five insect cells (baculovirus, pAcGP67-A)
T3 sequence (Q10471 408-571): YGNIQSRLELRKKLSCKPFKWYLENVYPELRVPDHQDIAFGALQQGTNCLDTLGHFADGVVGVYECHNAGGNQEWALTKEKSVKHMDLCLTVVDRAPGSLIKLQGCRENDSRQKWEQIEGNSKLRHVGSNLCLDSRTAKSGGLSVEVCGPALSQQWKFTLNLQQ
Procedure: as §1, §2, §3

[4] = target: Helix Pomatia lectin (HPA) (Helix pomatia, UniProt Q2F1K8); test: Direct binding ELISA, competitive inhibition, Helix Pomatia lectin control; conditions: read-out: Concentration required for 50% inhibition (IC50), HPA; control plant lectin
Excerpt: Glycopeptides were purified by C-18 reverse phase HPLC. Peptides were custom synthesized by Neosystems (Strasbourg). Biotinylated Helix Pomatia lectin (HPA) was from KemEnTec (Denmark). Anti-MUC1 HMFG2 monoclonal antibody was a generous gift from Joyce Taylor-Papadimitriou. Anti-MUC1 SE5 monoclonal antibody was developed by immunizing Balb/c mice with 60-mer MUC1 tandem repeat peptide glycosylated with 5 moles GalNAc per repeat. Monoclonal antibodies to the lectin domains of human GalNAc-T2 and -T4 were developed as previously described^8, 63.
as §2
Inhibition experiments were used to further define the binding specificity of GalNAc-T2 and -T4 secreted soluble enzymes as well as lectin domains compared to Helix Pomatia lectin (Table VII).

[5] = target: T4, secreted soluble GalNAc-T2 (sT2) (Homo sapiens, UniProt Q10471); test: Direct binding ELISA to GalNAc-MUC1 glycopeptide, competitive inhibition, sT2; conditions: read-out: Concentration required for 50% inhibition (IC50), sT2
T4 construct: HIS-tagged secreted human GalNAc-T2 and -T4 were prepared from pAC-GP67-T2-sol and pAC-GP67-T4-sol cDNA; 6xHis (N); thrombin cleavage site (N); T7 tag (N); made in house; host or cells: High Five insect cells (baculovirus)
Procedure: as §1, §2, §3

[6] = target: T5, GalNAc-T3 (Homo sapiens, UniProt Q14435); test: GalNAc-T3 transferase activities with UDP-GalNAc or UDP-Gal donor (EA2 acceptor, peptide panel); type: biochemical; conditions: peptide as acceptor substrate
T5 construct: Soluble, secreted expression constructs of human GalNAc-transferases GalNAc-T1, -T2, -T3, -T4, -T6, -T7, and -T11; made in house; host or cells: insect cells (baculovirus)
T5 sequence (Q14435 38-633 limits assumed): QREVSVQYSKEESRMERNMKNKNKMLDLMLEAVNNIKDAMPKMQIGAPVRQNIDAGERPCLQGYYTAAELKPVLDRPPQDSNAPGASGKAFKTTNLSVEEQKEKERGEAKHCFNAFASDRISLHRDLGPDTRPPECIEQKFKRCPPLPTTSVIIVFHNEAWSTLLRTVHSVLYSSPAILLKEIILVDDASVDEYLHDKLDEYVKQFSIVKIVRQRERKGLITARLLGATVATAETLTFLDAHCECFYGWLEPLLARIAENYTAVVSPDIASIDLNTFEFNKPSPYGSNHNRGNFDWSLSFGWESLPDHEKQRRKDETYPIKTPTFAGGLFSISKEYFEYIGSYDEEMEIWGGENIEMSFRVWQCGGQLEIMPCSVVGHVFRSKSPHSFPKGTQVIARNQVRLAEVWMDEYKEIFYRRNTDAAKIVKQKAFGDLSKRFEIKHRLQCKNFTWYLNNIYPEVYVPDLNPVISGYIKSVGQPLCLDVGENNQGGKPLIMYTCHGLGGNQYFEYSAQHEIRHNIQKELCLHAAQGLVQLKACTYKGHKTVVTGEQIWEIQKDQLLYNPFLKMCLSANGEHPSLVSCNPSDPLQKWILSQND
Procedure: (§4) Standard reaction mixtures (50 μl final volume) contained 25 mM cocadylate (pH 7.4), 10 mM MnCl2, 0.25% Triton X-100, 200 μM UDP-[^14C]-GalNAc (2,000 cpm/nmol) (Amersham), 200-500 μM acceptor peptides. Products were quantified by scintillation counting after chromatography on Dowex-1, octadecyl silica cartridges (Bakerbond), or HPLC (PC3.2/3 or mRPC C2/C18 SC2.1/10 Pharmacia, Smart System). […] Glycopeptides were purified on Supelclean LC-18 columns (1 ml, Supelco), and the number of GalNAc residues incorporated evaluated by MALDI-TOF mass spectrometry. The enzyme sources used were semipurified as previously described by successive sequential ion-exchange chromatographies on Amberlite (IRA95, Sigma) or DEAE Sephacel (Pharmacia), S-Sepharose Fast Flow (Pharmacia), and Mini-S™ (PC 3.2/3, Pharmacia) using the Smart System (Pharmacia) (28). Secreted GalNAc-T4 was obtained from a stably transfected CHO line (CHO/GalNA-T4/21A) (8) grown in roller bottles in HAMS F12 supplemented with 10% Fetal Bovine Serum. The experiments illustrated in FIG. 1 was performed with recombinant secreted GalNAc-T4 obtained from a stably transfected CHO line (8). Experiments illustrated in FIGS. 2 and 3 were performed with secreted GalNAc-T4 expressed in High Five cells grown in serum-free medium (8). Structural analysis of glycopeptides were performed by a combination of PFPA (pentafluoropropionic acid) hydrolysis and MALDI-TOF mass spectrometry as previously described (40). Secreted GalNAc-T7 was obtained from infected High Five™ cells grown in serum-free medium (Invitrogen) in upright roller bottles shaken 140 rpm in waterbaths at 27° C. GalNAc-T7 was not purified by Mini-S as the yields from cationic chromatography were low due to its low pI (6.4).
(§5) Galactosyl transferring activities of GalNAc-T1, -T2, and -T3, were assayed with a panel of acceptor peptides in standard reaction mixtures containing 100 μM UDP-Gal instead of UDP-GalNAc. […] Further, analysis was performed with 10 mM α-D-GalNAc-1-benzyl, αGlcNAc-benzyl, and fully occupied GalNAc-glycopeptide, GalNAC6TAP25, at 5 mM.

[7] = target: T6, GalNAc-T2 (Homo sapiens, UniProt Q10471); test: GalNAc-T2 transferase activities with UDP-GalNAc or UDP-Gal donor (Muc2 acceptor, peptide panel); type: biochemical; conditions: peptide as acceptor substrate
T6 construct: Soluble, secreted expression constructs of human GalNAc-transferases GalNAc-T1, -T2, -T3, -T4, -T6, -T7, and -T11; made in house; host or cells: insect cells (baculovirus)
Procedure: as §4, §5

[8] = read-out: Concentration required for 50% inhibition (IC50), sT4
[9] = read-out: Concentration required for 50% inhibition (IC50), T2ld

Row | Compound | IC50 [2, 8] [mM] | IC50 [4] [mM] | GalNAc-T3 activity with UDP-Gal by acceptor peptide [6] [nmol/min/mL] | GalNAc-T2 activity with UDP-Gal by acceptor peptide [7] [nmol/min/mL] | other results
1 | CC(=O)N[C@H]1[C@H](Oc2ccccc2[N+](=O)[O-])O[C@H](CO)[C@H](O)[C@@H]1O [oNPβGalNAc] | – | > 20 | – | – | IC50 [1]: 8 mM; IC50 [2]: 1 mM; IC50 [3]: > 12 mM
2 | EA2: acceptor peptide PTTDSTTPAPTTK derived from rat submandibular gland mucin | – | – | 6.8 | 1.5 | –
3 | Muc2: acceptor peptide PTTTPISTTTMVTPTPTPTC derived from human intestinal mucin MUC2 | – | – | 0 | 90 | –
4 | uridine diphospho-N-acetylgalactosamine [UDPαGalNAc] | 30 | – | – | – | IC50 [3, 9]: > 100 mM; IC50 [5]: 65 mM

Continued, in another order:

Row | IC50 [2, 8] [mM] | IC50 [4] [mM] | GalNAc-T3 activity with UDP-Gal by acceptor peptide [6] [nmol/min/mL] | GalNAc-T2 activity with UDP-Gal by acceptor peptide [7] [nmol/min/mL] | Compound | other results
5 | > 100 | > 100 | – | – | O=c1ccn([C@@H]2O[C@H](COP(=O)(O)OP(=O)(O)O)[C@@H](O)[C@H]2O)c(=O)[nH]1 [UDP] | IC50 ([1]; read-out: Concentration required for 50% inhibition (IC50), T4ld): > 100 mM; IC50 [3, 9]: > 100 mM; IC50 [5]: > 100 mM
6 | 0.8 | > 20 | – | – | CC(=O)N[C@H]1[C@H](Oc2ccc([N+](=O)[O-])cc2)O[C@H](CO)[C@H](O)[C@@H]1O [pNPβGalNAc] | –
7 | – | – | 0.1 | 13 | Muc7: acceptor peptide Ac-CPPTPSATTPAPPSSSAPPETTAA derived from human salivary gland mucin MUC7 | –
